Results from US20210278408A1, “METHODS OF TREATMENT OF CANCER WITH SUBSTITUTED PYRROLE AND PYRAZOLE COMPOUNDS AND DIAGNOSIS OF CANCERS SUSCEPTIBLE TO TREATMENT WITH SUBSTITUTED PYRROLE AND PYRAZOLE COMPOUNDS” (Bantam Pharmaceutical, LLC, priority 2018, published 2021).
pIC50: −log10 of the molar value.

Assays:
Format in all cases: cell-based, human
[1] = tested on: A549; test: Anti-proliferative activity, CellTiter-Glo, 72 hours: A549; conditions: A549 (non-small cell lung cancer), Cell-Titre-Glo
Procedure: (§1) Anti-proliferative activity of BTM compounds. The anti-proliferative activities of Compound A197 and Compound B19 were compared to 4EGI-1 (a known cancer cell growth inhibitor) in a panel of 99 tumor lines. Methods: A panel of 96 tumor and 3 normal cell lines were tested for sensitivity to the test compound. The cell lines were cultured in standard media and pipetted into 96-well plates at the required plating densities. The cells were acclimated for 24 hours prior to compound testing. Compound was prepared as a stock of 20 mM in DMSO. To prepare dose response curves compound was serially diluted in DMSO and dispensed into the plate wells using a Tecan D300e digital dispenser. The final DMSO concentration was 0.15%. After 72 hours of incubation cell number was determined using the CellTiter-Glo® protocol according to the manufacturers instructions (Promega). In this assay, ATP is measured as a surrogate of cell number. The activity of the compound is determined by comparing untreated cells with treated cells and calculating the % of signal retained. Compound activity is measured as an EC50 of maximum level of efficacy and the two are used to compute an activity area. The table below provides a comparison of activity in a data sample.

[2] = tested on: HCT-116; test: Anti-proliferative activity, CellTiter-Glo, 72 hours: HCT-116; conditions: HCT-116 (colorectal cancer), Cell-Titre-Glo
Procedure: as §1

[3] = tested on: HT-1080; test: Anti-proliferative activity, CellTiter-Glo, 72 hours: HT-1080; conditions: HT-1080 (fibrosarcoma), Cell-Titre-Glo
Procedure: as §1

[4] = tested on: Jurkat; test: Anti-proliferative activity, CellTiter-Glo, 72 hours: Jurkat; conditions: Jurkat (T cell leukemia), Cell-Titre-Glo
Procedure: as §1

[5] = tested on: LoVo; test: Anti-proliferative activity, CellTiter-Glo, 72 hours: LoVo; conditions: LoVo (colorectal cancer), Cell-Titre-Glo
Procedure: as §1

[6] = tested on: MDA-MB-157; test: Anti-proliferative activity, CellTiter-Glo, 72 hours: MDA-MB-157; conditions: MDA-MB-157 (breast cancer); 72 hours; Cell-Titre-Glo
Procedure: as §1

[7] = tested on: MDA-MB-231; test: Anti-proliferative activity, CellTiter-Glo, 72 hours: MDA-MB-231; conditions: MDA-MB-231 (breast cancer), Cell-Titre-Glo
Procedure: as §1

[8] = tested on: MIA PaCa-2; test: Anti-proliferative activity, CellTiter-Glo, 72 hours: MIA PaCa-2; conditions: MIA PaCa-2 (pancreactic cancer (carcinoma)), Cell-Titre-Glo
Procedure: as §1

[9] = tested on: NCI-H2122; test: Anti-proliferative activity, CellTiter-Glo, 72 hours: NCI-H2122; conditions: NCI-H2122 (non-small cell lung cancer), Cell-Titre-Glo
Procedure: as §1

[10] = tested on: NCI-H460; test: Anti-proliferative activity, CellTiter-Glo, 72 hours: NCI-H460; conditions: NCI-H460 (non-small cell lung cancer), Cell-Titre-Glo
Procedure: as §1

[11] = tested on: SK-MEL-28; test: Anti-proliferative activity, CellTiter-Glo, 72 hours: SK-MEL-28; conditions: SK-MEL-28 (melanoma), Cell-Titre-Glo
Procedure: as §1

[12] = tested on: SU-DHL-10; test: Anti-proliferative activity, CellTiter-Glo, 72 hours: SU-DHL-10; conditions: SU-DHL-10 (B-cell lymphoma), Cell-Titre-Glo
Procedure: as §1

[13] = tested on: SU-DHL-6; test: Anti-proliferative activity, CellTiter-Glo, 72 hours: SU-DHL-6; conditions: SU-DHL-6 (B-cell lymphoma), Cell-Titre-Glo
Procedure: as §1

[14] = tested on: SU-DHL-4; test: Anti-proliferative activity, CellTiter-Glo, 72 hours: SU-DHL-4; conditions: SU-DHL-4 (B-cell lymphoma), Cell-Titre-Glo
Procedure: as §1

[15] = tested on: HUVEC; test: Anti-proliferative activity, CellTiter-Glo, 72 hours: HUVEC; conditions: HUVEC (primary endolithial cells), Cell-Titre-Glo
Procedure: as §1

[16] = tested on: HK-2; test: Anti-proliferative activity, CellTiter-Glo, 72 hours: HK-2; conditions: HK-2 (kidney epilithial), Cell-Titre-Glo
Procedure: as §1

Structure (SMILES): O=C(O)C(Cc1ccccc1[N+](=O)[O-])=NNc1nc(-c2ccc(Cl)c(Cl)c2)cs1 (mixture of isomers) [Compound 4EGI-1, 4EGI-1, reference compound]
- pIC50 [1]: 4.66
- pIC50 [2]: 4.98
- pIC50 [3]: 5.33
- pIC50 [4]: 4.88
- pIC50 [5]: 4.85
- pIC50 [6]: 4.93
- pIC50 [7]: 5.24
- pIC50 [8]: 4.85
- pIC50 [9]: 4.86
- pIC50 [10]: 5.02
- pIC50 [11]: 4.48
- pIC50 [12]: 4.71
- pIC50 [13]: 5.14
- pIC50 [14]: 5.07
- pIC50 [15]: 5.10
- pIC50 [16]: 4.34
